Test results taken from ChEMBL document CHEMBL3763148, “Synthesis, structure elucidation, DNA-PK and PI3K and anti-cancer activity of 8- and 6-aryl-substituted-1-3-benzoxazines” (Eur J Med Chem, 2016).

Legend:
[1] = target: Phosphatidylinositol 4,5-bisphosphate 3-kinase catalytic subunit gamma isoform (Homo sapiens) (UniProt P48736); assay: Inhibition of PI3Kgamma (unknown origin) at 10 uM incubated for 60 mins by kinase-glo luminescence assay
[2] = target: T1, Phosphatidylinositol 4,5-bisphosphate 3-kinase catalytic subunit delta isoform (Homo sapiens, UniProt O00329); assay: Inhibition of PI3Kdelta (unknown origin) incubated for 60 mins by kinase-glo luminescence assay
T1 sequence (O00329 whole entry): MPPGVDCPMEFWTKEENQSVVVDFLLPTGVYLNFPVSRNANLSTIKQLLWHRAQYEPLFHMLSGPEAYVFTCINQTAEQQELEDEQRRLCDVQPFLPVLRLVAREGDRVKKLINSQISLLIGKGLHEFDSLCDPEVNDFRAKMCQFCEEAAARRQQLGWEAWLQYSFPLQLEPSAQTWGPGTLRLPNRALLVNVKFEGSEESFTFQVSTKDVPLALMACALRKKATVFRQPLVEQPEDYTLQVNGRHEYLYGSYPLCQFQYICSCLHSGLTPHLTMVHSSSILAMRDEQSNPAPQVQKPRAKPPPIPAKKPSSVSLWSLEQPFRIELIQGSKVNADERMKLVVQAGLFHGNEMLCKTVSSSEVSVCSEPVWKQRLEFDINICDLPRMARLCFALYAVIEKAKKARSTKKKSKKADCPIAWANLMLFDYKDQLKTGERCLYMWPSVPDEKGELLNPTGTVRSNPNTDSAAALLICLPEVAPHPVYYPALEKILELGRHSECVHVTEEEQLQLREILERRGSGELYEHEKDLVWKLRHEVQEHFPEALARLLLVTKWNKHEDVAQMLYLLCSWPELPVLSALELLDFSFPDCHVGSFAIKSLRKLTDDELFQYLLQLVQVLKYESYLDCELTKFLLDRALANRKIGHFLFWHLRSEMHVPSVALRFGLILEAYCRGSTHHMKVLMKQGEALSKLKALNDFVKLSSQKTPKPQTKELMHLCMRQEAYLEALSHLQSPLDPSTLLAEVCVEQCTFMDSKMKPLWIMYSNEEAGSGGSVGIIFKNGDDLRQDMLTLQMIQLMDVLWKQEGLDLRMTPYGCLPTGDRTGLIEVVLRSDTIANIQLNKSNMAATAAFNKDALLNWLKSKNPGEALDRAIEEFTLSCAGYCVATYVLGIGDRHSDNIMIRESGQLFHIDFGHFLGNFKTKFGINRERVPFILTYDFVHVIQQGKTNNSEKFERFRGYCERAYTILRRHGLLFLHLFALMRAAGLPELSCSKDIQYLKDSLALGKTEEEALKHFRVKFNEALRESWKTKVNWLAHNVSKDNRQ

CCRF-CEM = assay: Cytotoxicity against human CCRF-CEM cells assessed as cell growth inhibition at 10 uM after 48 hrs by SRB assay relative to control; type: functional; settings: read-out: GI
[3] = Cytotoxicity against human HL-60(TB) cells assessed as cell growth inhibition at 10 uM after 48 hrs by SRB assay relative to control; type: functional; settings: HL-60, 48 h, read-out: GI
EKVX = assay: Cytotoxicity against human EKVX cells assessed as cell growth inhibition at 10 uM after 48 hrs by SRB assay relative to control; type: functional; settings: read-out: GI
NCI-H226 = assay: Cytotoxicity against human NCI-H226 cells assessed as cell growth inhibition at 10 uM after 48 hrs by SRB assay relative to control; type: functional; settings: NCI-H226, 48 h, read-out: GI
NCI-H322M = assay: Cytotoxicity against human NCI-H322M cells assessed as cell growth inhibition at 10 uM after 48 hrs by SRB assay relative to control; type: functional; settings: read-out: GI
NCI-H460 = assay: Cytotoxicity against human NCI-H460 cells assessed as cell growth inhibition at 10 uM after 48 hrs by SRB assay relative to control; type: functional; settings: NCI-H460, 48 h, read-out: GI
[4] = Cytotoxicity against human COLO205 cells assessed as cell growth inhibition at 10 uM after 48 hrs by SRB assay relative to control; type: functional; settings: COLO 205, 48 h, read-out: GI
KM12 = assay: Cytotoxicity against human KM12 cells assessed as cell growth inhibition at 10 uM after 48 hrs by SRB assay relative to control; type: functional; settings: KM12, 48 h, read-out: GI
[5] = Cytotoxicity against human SF539 cells assessed as cell growth inhibition at 10 uM after 48 hrs by SRB assay relative to control; type: functional; settings: SF-539, 48 h, read-out: GI
[6] = Cytotoxicity against human SNB19 cells assessed as cell growth inhibition at 10 uM after 48 hrs by SRB assay relative to control; type: functional; settings: SNB-19, 48 h, read-out: GI
U-251 = assay: Cytotoxicity against human U251 cells assessed as cell growth inhibition at 10 uM after 48 hrs by SRB assay relative to control; type: functional; settings: U-251, 48 h, read-out: GI
[7] = Cytotoxicity against human LOXIMVI cells assessed as cell growth inhibition at 10 uM after 48 hrs by SRB assay relative to control; type: functional; settings: LOX IMVI, read-out: GI
Malme-3M = assay: Cytotoxicity against human MALME-3M cells assessed as cell growth inhibition at 10 uM after 48 hrs by SRB assay relative to control; type: functional; settings: read-out: GI
SK-MEL-2 = assay: Cytotoxicity against human SK-MEL-2 cells assessed as cell growth inhibition at 10 uM after 48 hrs by SRB assay relative to control; type: functional; settings: SK-MEL-2, 48 h, read-out: GI
SK-MEL-5 = assay: Cytotoxicity against human SK-MEL-5 cells assessed as cell growth inhibition at 10 uM after 48 hrs by SRB assay relative to control; type: functional; settings: SK-MEL-5, 48 h, read-out: GI
[8] = Cytotoxicity against human UACC257 cells assessed as cell growth inhibition at 10 uM after 48 hrs by SRB assay relative to control; type: functional; settings: UACC-257, 48 h, read-out: GI
[9] = Cytotoxicity against human UACC62 cells assessed as cell growth inhibition at 10 uM after 48 hrs by SRB assay relative to control; type: functional; settings: UACC-62, 48 h, read-out: GI
[10] = Cytotoxicity against human SKOV3 cells assessed as cell growth inhibition at 10 uM after 48 hrs by SRB assay relative to control; type: functional; settings: SK-OV-3, 48 h, read-out: GI
786-0 = assay: Cytotoxicity against human 786-0 cells assessed as cell growth inhibition at 10 uM after 48 hrs by SRB assay relative to control; type: functional; settings: 786-0, 48 h, read-out: GI
[11] = Cytotoxicity against human UO31 cells assessed as cell growth inhibition at 10 uM after 48 hrs by SRB assay relative to control; type: functional; settings: UO-31, 48 h, read-out: GI
[12] = Cytotoxicity against human BT549 cells assessed as cell growth inhibition at 10 uM after 48 hrs by SRB assay relative to control; type: functional; settings: BT-549, 48 h, read-out: GI
MDA-MB-468 = assay: Cytotoxicity against human MDA-MB-468 cells assessed as cell growth inhibition at 10 uM after 48 hrs by SRB assay relative to control; type: functional; settings: MDA-MB-468, 48 h, read-out: GI

Phosphatidylinositol 4,5-bisphosphate 3-kinase catalytic subunit gamma isoform (Homo sapiens), sequence (P48736 whole entry, looked up, canonical isoform): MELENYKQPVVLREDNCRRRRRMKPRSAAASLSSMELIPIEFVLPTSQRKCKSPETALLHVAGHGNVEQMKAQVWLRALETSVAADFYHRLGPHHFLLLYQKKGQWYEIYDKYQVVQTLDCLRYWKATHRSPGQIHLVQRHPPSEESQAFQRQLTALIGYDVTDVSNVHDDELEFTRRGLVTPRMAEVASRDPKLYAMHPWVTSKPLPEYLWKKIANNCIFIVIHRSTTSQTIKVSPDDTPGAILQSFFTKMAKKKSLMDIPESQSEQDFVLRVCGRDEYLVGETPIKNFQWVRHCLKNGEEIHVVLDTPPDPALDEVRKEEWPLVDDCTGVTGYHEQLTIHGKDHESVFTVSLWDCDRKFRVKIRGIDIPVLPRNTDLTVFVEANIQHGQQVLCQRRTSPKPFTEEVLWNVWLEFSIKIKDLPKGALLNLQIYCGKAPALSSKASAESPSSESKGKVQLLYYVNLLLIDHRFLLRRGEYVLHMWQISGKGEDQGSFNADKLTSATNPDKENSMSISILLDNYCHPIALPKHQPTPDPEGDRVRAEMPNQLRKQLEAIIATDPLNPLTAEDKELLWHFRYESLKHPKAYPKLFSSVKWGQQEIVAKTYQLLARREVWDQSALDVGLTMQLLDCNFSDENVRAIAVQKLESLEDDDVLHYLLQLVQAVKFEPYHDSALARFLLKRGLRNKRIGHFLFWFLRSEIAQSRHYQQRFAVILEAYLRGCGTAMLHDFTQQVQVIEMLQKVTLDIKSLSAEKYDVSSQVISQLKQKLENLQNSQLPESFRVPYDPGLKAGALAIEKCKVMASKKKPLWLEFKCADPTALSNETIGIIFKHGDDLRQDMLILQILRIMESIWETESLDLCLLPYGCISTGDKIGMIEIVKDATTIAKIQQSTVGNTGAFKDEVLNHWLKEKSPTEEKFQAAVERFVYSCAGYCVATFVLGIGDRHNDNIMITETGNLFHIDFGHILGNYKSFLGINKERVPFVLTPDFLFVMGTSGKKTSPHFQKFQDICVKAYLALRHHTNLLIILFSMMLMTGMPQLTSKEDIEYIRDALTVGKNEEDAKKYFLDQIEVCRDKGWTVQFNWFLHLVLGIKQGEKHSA

Row | SMILES | inhibition [1] [%] | IC50 [2] [µM] | inhibition of growth at 10 µM (CCRF-CEM) [%] | inhibition of growth at 10 µM [3] [%] | inhibition of growth at 10 µM (EKVX) [%] | inhibition of growth at 10 µM (NCI-H226) [%] | inhibition of growth at 10 µM (NCI-H322M) [%] | inhibition of growth at 10 µM (NCI-H460) [%] | inhibition of growth at 10 µM [4] [%] | inhibition of growth at 10 µM (KM12) [%] | inhibition of growth at 10 µM [5] [%] | inhibition of growth at 10 µM [6] [%] | inhibition of growth at 10 µM (U-251) [%] | inhibition of growth at 10 µM [7] [%] | inhibition of growth at 10 µM (Malme-3M) [%] | inhibition of growth at 10 µM (SK-MEL-2) [%] | inhibition of growth at 10 µM (SK-MEL-5) [%] | inhibition of growth at 10 µM [8] [%] | inhibition of growth at 10 µM [9] [%] | inhibition of growth at 10 µM [10] [%] | further results
1 | O=c1nc(N2CCOCC2)oc2c(-c3cccc4c3sc3ccccc34)cccc12 | 27 | 8.5 | 19.9 | 11.5 | 28.3 | 38.6 | 18.3 | 4.79 | 3.36 | 21.6 | 15.1 | 18.5 | 17.8 | 21.3 | 12.4 | 9.49 | 17.2 | 5.04 | 45.6 | -11.4 | inhibition of growth at 10 µM (786-0): 27.7%; inhibition of growth at 10 µM [11]: 52%; inhibition of growth at 10 µM [12]: 13.6%; inhibition of growth at 10 µM (MDA-MB-468): 26.2%
2 | O=c1nc(N2CCOCC2)oc2c(-c3cccc4ccccc34)cccc12 | 29 | 0.64 | 8.52 | 6.4 | 18.9 | 33.4 | 9.24 | -10 | -3.19 | 12.7 | 15 | 8.18 | 14.2 | 19.9 | 24.8 | -0.37 | 20.8 | 3.51 | 45.6 | 10 | inhibition of growth at 10 µM (786-0): 25.6%; inhibition of growth at 10 µM [11]: 46.6%; inhibition of growth at 10 µM [12]: 14.7%; inhibition of growth at 10 µM (MDA-MB-468): 23.5%
3 | O=c1nc(N2CCOCC2)oc2c(-c3cccc4c3oc3ccccc34)cccc12 | 32 | 12 | 11.6 | 5.92 | 18.2 | 27.7 | 22.3 | -2.97 | -2.34 | 12.7 | 3.81 | 4.3 | 7.66 | 39.2 | 19.7 | -4.28 | 13.7 | -3.42 | 37.4 | -14.9 | inhibition of growth at 10 µM (786-0): 21.8%; inhibition of growth at 10 µM [11]: 40.1%; inhibition of growth at 10 µM [12]: 2.25%; inhibition of growth at 10 µM (MDA-MB-468): 18.7%
